This is an account of results in PMC4483627 (Marine Drugs, 2015).

The structures appear in SMILES notation. “And” between values parts separate entries of the source, which are not always exact repeats. Equal entries are not always repeated. Positions of bridges follow the written chain, without caps; N, C: chain ends. Residues, ends and D or L forms follow the SMILES beside them. Some results are limits rather than exact numbers.

What all share (assay): cell-based
In test [1] the target is T1, rat nAChR α3β2 (Rattus norvegicus, UniProt P04757+P12390).
T1 construct: expressed in transfected cells; host or cells: Xenopus oocytes injected with cRNA
T1 sequence (P04757 26-499 limits assumed): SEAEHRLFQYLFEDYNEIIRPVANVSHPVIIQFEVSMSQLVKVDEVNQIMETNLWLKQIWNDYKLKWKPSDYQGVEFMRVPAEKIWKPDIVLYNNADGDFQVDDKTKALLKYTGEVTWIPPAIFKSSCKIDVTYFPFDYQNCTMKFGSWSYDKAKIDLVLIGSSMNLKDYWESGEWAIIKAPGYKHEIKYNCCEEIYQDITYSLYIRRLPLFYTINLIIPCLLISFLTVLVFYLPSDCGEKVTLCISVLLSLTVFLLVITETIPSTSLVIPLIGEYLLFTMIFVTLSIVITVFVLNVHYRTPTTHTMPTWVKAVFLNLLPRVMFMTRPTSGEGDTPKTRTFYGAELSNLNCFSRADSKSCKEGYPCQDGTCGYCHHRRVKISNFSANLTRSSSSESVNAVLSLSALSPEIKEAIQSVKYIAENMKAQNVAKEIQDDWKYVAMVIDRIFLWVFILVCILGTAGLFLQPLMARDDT
T1 sequence (P12390 25-500 limits assumed): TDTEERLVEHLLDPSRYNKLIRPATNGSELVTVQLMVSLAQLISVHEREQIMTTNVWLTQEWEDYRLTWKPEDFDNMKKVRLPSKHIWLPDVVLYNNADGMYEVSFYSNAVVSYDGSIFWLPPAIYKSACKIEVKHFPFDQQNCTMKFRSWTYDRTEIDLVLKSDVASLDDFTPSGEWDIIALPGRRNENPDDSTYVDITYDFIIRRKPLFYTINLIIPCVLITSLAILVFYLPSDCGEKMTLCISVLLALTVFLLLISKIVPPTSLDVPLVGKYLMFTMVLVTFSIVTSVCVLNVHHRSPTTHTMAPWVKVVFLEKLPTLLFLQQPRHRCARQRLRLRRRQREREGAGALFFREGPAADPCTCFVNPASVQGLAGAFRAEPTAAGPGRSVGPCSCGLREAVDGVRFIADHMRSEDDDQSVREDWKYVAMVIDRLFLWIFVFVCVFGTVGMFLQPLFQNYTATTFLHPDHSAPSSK
The test is classed as cell-based.

A further test has as its target T2, rat nAChR α7 (Rattus norvegicus, UniProt Q05941).
T2 construct: expressed in transfected cells; host or cells: Xenopus oocytes injected with cRNA

The target of the next test is T3, rat nAChR α3β4 (Rattus norvegicus, UniProt P04757+P12392).
T3 construct: expressed in transfected cells; host or cells: Xenopus oocytes injected with cRNA
T3 sequence (P04757 26-499 limits assumed): as the sequence (P04757 26-499 limits assumed) above
T3 sequence (P12392 21-495 limits assumed): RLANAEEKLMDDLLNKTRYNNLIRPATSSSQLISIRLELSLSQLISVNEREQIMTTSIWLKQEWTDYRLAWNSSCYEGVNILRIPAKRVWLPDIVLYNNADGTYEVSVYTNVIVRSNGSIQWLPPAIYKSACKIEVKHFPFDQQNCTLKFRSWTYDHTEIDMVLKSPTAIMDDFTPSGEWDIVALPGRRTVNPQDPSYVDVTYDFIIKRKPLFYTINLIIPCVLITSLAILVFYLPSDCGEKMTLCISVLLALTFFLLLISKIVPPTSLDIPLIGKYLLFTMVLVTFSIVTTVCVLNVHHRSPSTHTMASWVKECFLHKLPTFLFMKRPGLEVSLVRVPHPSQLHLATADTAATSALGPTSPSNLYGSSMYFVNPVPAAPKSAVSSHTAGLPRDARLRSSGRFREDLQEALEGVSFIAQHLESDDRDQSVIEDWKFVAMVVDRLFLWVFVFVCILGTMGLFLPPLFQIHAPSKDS

Another test deals with T4, rat nAChR α2β4 (Rattus norvegicus, UniProt P12389+P12392).
T4 construct: expressed in transfected cells; host or cells: Xenopus oocytes injected with cRNA
T4 sequence (P12389 28-511 limits assumed): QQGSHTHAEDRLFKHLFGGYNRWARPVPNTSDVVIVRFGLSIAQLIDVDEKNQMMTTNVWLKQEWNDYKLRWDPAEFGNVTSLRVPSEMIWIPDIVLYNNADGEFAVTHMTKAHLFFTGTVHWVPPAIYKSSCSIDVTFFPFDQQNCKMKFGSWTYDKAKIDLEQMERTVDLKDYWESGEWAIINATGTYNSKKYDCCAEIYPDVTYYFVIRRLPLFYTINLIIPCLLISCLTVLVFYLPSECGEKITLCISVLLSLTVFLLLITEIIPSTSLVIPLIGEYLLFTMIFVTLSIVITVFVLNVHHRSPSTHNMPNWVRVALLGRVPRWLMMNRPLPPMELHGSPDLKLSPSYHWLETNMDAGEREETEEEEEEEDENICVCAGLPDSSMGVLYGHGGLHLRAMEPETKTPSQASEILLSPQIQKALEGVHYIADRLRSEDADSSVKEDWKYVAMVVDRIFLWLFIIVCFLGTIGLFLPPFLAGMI
T4 sequence (P12392 21-495 limits assumed): as the sequence (P12392 21-495 limits assumed) above
Particulars: for IC50: IC50 α2β4.

Another test deals with T5, rat nAChR α9α10 (Rattus norvegicus, UniProt P43144+Q9JLB5).
T5 construct: expressed in transfected cells; host or cells: Xenopus oocytes injected with cRNA
T5 sequence (P43144 26-479 limits assumed): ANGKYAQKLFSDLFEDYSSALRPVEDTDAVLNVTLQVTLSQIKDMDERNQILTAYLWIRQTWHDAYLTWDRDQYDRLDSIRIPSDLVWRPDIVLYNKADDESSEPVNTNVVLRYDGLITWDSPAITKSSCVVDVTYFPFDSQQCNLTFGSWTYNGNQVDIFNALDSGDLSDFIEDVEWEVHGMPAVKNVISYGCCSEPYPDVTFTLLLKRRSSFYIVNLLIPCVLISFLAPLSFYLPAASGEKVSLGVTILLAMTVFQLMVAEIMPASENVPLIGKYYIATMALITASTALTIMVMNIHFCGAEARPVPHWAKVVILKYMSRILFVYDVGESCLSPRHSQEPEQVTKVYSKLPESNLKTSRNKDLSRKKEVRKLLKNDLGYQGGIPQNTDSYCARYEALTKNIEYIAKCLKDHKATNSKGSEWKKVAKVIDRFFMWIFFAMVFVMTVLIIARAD
T5 sequence (Q9JLB5 25-447 limits assumed): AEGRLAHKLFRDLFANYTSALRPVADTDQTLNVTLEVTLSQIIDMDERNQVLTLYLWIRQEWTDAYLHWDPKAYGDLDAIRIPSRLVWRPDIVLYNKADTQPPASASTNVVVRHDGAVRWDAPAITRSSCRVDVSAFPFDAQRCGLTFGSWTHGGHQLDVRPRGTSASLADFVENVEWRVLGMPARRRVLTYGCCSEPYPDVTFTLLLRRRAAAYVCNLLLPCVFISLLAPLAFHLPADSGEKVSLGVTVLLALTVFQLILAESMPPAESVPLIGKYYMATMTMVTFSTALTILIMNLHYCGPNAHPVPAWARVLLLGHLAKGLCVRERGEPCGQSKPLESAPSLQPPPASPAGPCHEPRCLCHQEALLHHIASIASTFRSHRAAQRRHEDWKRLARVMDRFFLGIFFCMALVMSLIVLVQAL

The target in test [2] is T1, rat nAChR α3β2. The format is cell-based. This is another data set of the same source.

T2 sequence (Q05941 23-502 limits assumed): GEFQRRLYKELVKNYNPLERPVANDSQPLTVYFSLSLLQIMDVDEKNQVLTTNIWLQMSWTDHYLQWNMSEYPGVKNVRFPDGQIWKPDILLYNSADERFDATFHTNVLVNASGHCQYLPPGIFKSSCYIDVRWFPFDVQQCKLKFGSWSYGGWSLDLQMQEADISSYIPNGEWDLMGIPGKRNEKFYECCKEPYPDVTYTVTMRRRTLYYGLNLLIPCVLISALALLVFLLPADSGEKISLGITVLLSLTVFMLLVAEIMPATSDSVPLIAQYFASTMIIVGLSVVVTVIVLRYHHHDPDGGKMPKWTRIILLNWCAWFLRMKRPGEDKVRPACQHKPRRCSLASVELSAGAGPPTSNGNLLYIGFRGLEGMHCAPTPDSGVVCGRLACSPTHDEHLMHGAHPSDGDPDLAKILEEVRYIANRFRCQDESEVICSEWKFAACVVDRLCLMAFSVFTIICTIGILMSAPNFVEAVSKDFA

With `CC(C)C[C@@H]1NC(=O)[C@H](CCC(=O)O)NC(=O)[C@@H]2CCCN2C(=O)[C@H](Cc2c[nH]cn2)NC(=O)[C@H](CC(N)=O)NC(=O)CNC(=O)[C@H](Cc2c[nH]cn2)NC(=O)[C@@H]2CSSC[C@H](NC(=O)[C@H](CCC(=O)O)NC(=O)[C@@H]3CCCN3)C(=O)N[C@@H](CSSC[C@@H](C(N)=O)NC1=O)C(=O)N[C@@H]([C@@H](C)O)C(=O)N[C@@H](Cc1c[nH]cn1)C(=O)N1CCC[C@H]1C(=O)N[C@@H](C)C(=O)N2` [Mr1.7[V11G,S12N]] (H-PECCTHPACHGNHPELC-NH2; disulfide 3-9, 4-17), the IC50 – broadly, the concentration that inhibits the measured activity by half – at rat nAChR α3β2 [1] was found to be 28.4 nM.

As for `CC(C)C[C@@H]1NC(=O)[C@H](CCC(=O)O)NC(=O)[C@@H]2CCCN2C(=O)[C@H](C)NC(=O)[C@H](CO)NC(=O)[C@H](C(C)C)NC(=O)[C@H](Cc2c[nH]cn2)NC(=O)[C@@H]2CSSC[C@H](NC(=O)[C@H](CCC(=O)O)NC(=O)[C@@H]3CCCN3)C(=O)N[C@@H](CSSC[C@@H](C(N)=O)NC1=O)C(=O)N[C@@H]([C@@H](C)O)C(=O)N[C@@H](Cc1c[nH]cn1)C(=O)N1CCC[C@H]1C(=O)N[C@@H](C)C(=O)N2` [Mr1.7[H13A]] (H-PECCTHPACHVSAPELC-NH2; disulfide 3-9, 4-17; N-terminus assumed), the IC50 at rat nAChR α3β2 [1] was more than 10000 nM.

Regarding `CC(C)C[C@@H]1NC(=O)[C@H](CCC(=O)O)NC(=O)[C@@H]2CCCN2C(=O)[C@H](Cc2c[nH]cn2)NC(=O)[C@H](CC(N)=O)NC(=O)[C@H](C(C)C)NC(=O)[C@H](Cc2c[nH]cn2)NC(=O)[C@@H]2CSSC[C@H](NC(=O)[C@H](C)NC(=O)[C@@H]3CCCN3)C(=O)N[C@@H](CSSC[C@@H](C(N)=O)NC1=O)C(=O)N[C@@H]([C@@H](C)O)C(=O)N[C@@H](Cc1c[nH]cn1)C(=O)N1CCC[C@H]1C(=O)N[C@@H](C)C(=O)N2` [Mr1.7[E2A,S12N]] (H-PACCTHPACHVNHPELC-NH2; disulfide 3-9, 4-17), the IC50 is 591 nM at rat nAChR α7, 556 nM at rat nAChR α3β4, 3490 nM at rat nAChR α2β4 and more than 10 µM on rat nAChR α9α10. Moreover, the kon – broadly, the rate constant with which the complex forms – at rat nAChR α3β2 [2] is 73800 M⁻¹ s⁻¹. Moreover, the dissociation rate constant (koff) (in general, a measure of how fast the partners let go of each other) at rat nAChR α3β2 [2] (SEM) is 0.00173 s⁻¹.

With `CC(C)C[C@@H]1NC(=O)[C@H](CCC(=O)O)NC(=O)[C@@H]2CCCN2C(=O)[C@H](Cc2c[nH]cn2)NC(=O)[C@H](CO)NC(=O)[C@H](C(C)C)NC(=O)[C@H](Cc2c[nH]cn2)NC(=O)[C@@H]2CSSC[C@H](NC(=O)[C@H](C)NC(=O)[C@@H]3CCCN3)C(=O)N[C@@H](CSSC[C@@H](C(N)=O)NC1=O)C(=O)N[C@@H]([C@@H](C)O)C(=O)N[C@@H](Cc1c[nH]cn1)C(=O)N1CCC[C@H]1C(=O)N[C@@H](C)C(=O)N2` [Mr1.7[E2A]] (H-PACCTHPACHVSHPELC-NH2; disulfide 3-9, 4-17), the concentration for half-maximal inhibition (IC50) is more than 10000 nM on rat nAChR α7, more than 10000 nM against rat nAChR α3β4, more than 10000 nM against rat nAChR α2β4 and more than 10 µM against rat nAChR α9α10. The “selectivity index (SI) for α3β2” value on rat nAChR α3β2 [1] is recorded as more than 847. This molecule also had a kon on rat nAChR α3β2 [2] of 86300 M⁻¹ s⁻¹. The molecule further gave a koff on rat nAChR α3β2 [2] (SEM) of 0.0028 s⁻¹.

For the molecule `CC(C)C[C@@H]1NC(=O)[C@H](CCC(=O)O)NC(=O)[C@@H]2CCCN2C(=O)[C@H](Cc2c[nH]cn2)NC(=O)[C@H](CC(N)=O)NC(=O)[C@H](C(C)C)NC(=O)[C@H](Cc2c[nH]cn2)NC(=O)[C@@H]2CSSC[C@H](NC(=O)[C@H](CCC(=O)O)NC(=O)[C@@H]3CCCN3)C(=O)N[C@@H](CSSC[C@@H](C(N)=O)NC1=O)C(=O)N[C@@H]([C@@H](C)O)C(=O)N[C@@H](Cc1c[nH]cn1)C(=O)N1CCC[C@H]1C(=O)N[C@@H](C)C(=O)N2` [Mr1.7[S12N]] (H-PECCTHPACHVNHPELC-NH2; disulfide 3-9, 4-17), the IC50 against rat nAChR α7 was 220 nM; against rat nAChR α3β4 it was 850 nM; at rat nAChR α2β4, 370 nM and 367 nM; at rat nAChR α9α10, more than 10 µM. Further, the kon on rat nAChR α3β2 [2] was 130000 M⁻¹ s⁻¹. On rat nAChR α3β2 [2] (SEM), the koff was 0.00407 s⁻¹.

`CC(C)C[C@@H]1NC(=O)[C@H](CCC(=O)O)NC(=O)[C@@H]2CCCN2C(=O)[C@H](Cc2c[nH]cn2)NC(=O)[C@H](CO)NC(=O)[C@H](C(C)C)NC(=O)[C@H](C)NC(=O)[C@@H]2CSSC[C@H](NC(=O)[C@H](CCC(=O)O)NC(=O)[C@@H]3CCCN3)C(=O)N[C@@H](CSSC[C@@H](C(N)=O)NC1=O)C(=O)N[C@@H]([C@@H](C)O)C(=O)N[C@@H](Cc1c[nH]cn1)C(=O)N1CCC[C@H]1C(=O)N[C@@H](C)C(=O)N2` [Mr1.7[H10A]] (H-PECCTHPACAVSHPELC-NH2; disulfide 3-9, 4-17) displayed an IC50 on rat nAChR α3β2 [1] of 123 nM.

As to `CC(C)C[C@@H]1NC(=O)[C@H](CCC(=O)O)NC(=O)[C@@H]2CCCN2C(=O)[C@H](Cc2c[nH]cn2)NC(=O)[C@H](CO)NC(=O)CNC(=O)[C@H](Cc2c[nH]cn2)NC(=O)[C@@H]2CSSC[C@H](NC(=O)[C@H](CCC(=O)O)NC(=O)[C@@H]3CCCN3)C(=O)N[C@@H](CSSC[C@@H](C(N)=O)NC1=O)C(=O)N[C@@H]([C@@H](C)O)C(=O)N[C@@H](Cc1c[nH]cn1)C(=O)N1CCC[C@H]1C(=O)N[C@@H](C)C(=O)N2` [Mr1.7[V11G]] (H-PECCTHPACHGSHPELC-NH2; disulfide 3-9, 4-17), the IC50 against rat nAChR α3β2 [1] came to 138 nM.

As for `CC(C)C[C@@H]1NC(=O)[C@H](CCC(=O)O)NC(=O)[C@@H]2CCCN2C(=O)[C@H](Cc2c[nH]cn2)NC(=O)[C@H](CO)NC(=O)[C@H](C(C)C)NC(=O)[C@H](Cc2c[nH]cn2)NC(=O)[C@@H]2CSSC[C@H](NC(=O)[C@H](CCC(=O)O)NC(=O)[C@@H]3CCCN3C(=O)[C@@H](N)CCCNC(=N)N)C(=O)N[C@@H](CSSC[C@@H](C(N)=O)NC1=O)C(=O)N[C@@H]([C@@H](C)O)C(=O)N[C@@H](Cc1c[nH]cn1)C(=O)N1CCC[C@H]1C(=O)N[C@@H](C)C(=O)N2` [RaaMr1.7] (H-RPECCTHPACHVSHPELC-NH2; disulfide 4-10, 5-18; N-terminus assumed), the midpoint of inhibition against rat nAChR α3β2 [1], the IC50, lay at 41.2 nM.

As to `CC(C)C[C@@H]1NC(=O)[C@H](CCC(=O)O)NC(=O)[C@@H]2CCCN2C(=O)[C@H](Cc2c[nH]cn2)NC(=O)[C@H](CO)NC(=O)[C@H](C(C)C)NC(=O)[C@H](Cc2c[nH]cn2)NC(=O)[C@@H]2CSSC[C@H](NC(=O)[C@H](CCC(=O)O)NC(=O)[C@H](C)N)C(=O)N[C@@H](CSSC[C@@H](C(N)=O)NC1=O)C(=O)N[C@@H]([C@@H](C)O)C(=O)N[C@@H](Cc1c[nH]cn1)C(=O)N1CCC[C@H]1C(=O)N[C@@H](C)C(=O)N2` [Mr1.7[P1A]] (H-AECCTHPACHVSHPELC-NH2; disulfide 3-9, 4-17), at rat nAChR α3β2 [1], the midpoint of inhibition, the IC50, lay at 42 nM.

At rat nAChR α7, `CC(C)C[C@@H]1NC(=O)[C@H](CCC(=O)O)NC(=O)[C@@H]2CCCN2C(=O)[C@H](Cc2c[nH]cn2)NC(=O)[C@H](CC(N)=O)NC(=O)CNC(=O)[C@H](Cc2c[nH]cn2)NC(=O)[C@@H]2CSSC[C@H](NC(=O)CN)C(=O)N[C@@H](CSSC[C@@H](C(N)=O)NC1=O)C(=O)N[C@@H]([C@@H](C)O)C(=O)N[C@@H](Cc1c[nH]cn1)C(=O)N1CCC[C@H]1C(=O)N[C@@H](C)C(=O)N2` [Mr1.7[E2G,V11G,S12N,Δ1]] (H-GCCTHPACHGNHPELC-NH2; disulfide 2-8, 3-16; N-terminus assumed) registered an IC50 of more than 10000 nM and a α7/α3β2 of more than 2272. On rat nAChR α3β4, the IC50 worked out at 125 nM and the α3β4/α3β2 is on record as 27. On rat nAChR α2β4, this molecule came in with a α2β4/α3β2 of 89 and an IC50 of 390 nM. On rat nAChR α9α10, this molecule had a 50% inhibitory concentration (IC50) of more than 10 µM and a α9α10/α3β2 of more than 2272. Besides, at rat nAChR α3β2 [2], the “50% recovery from block” value was found to be 3.3 min, the kon is 208000 M⁻¹ s⁻¹ and the t1/2 is recorded as 3.286 (2.842–3.894) min. In addition, at rat nAChR α3β2 [2] (SEM), the kobs was found to be 1.460 ± 0.2516 min⁻¹ and the koff is 0.00352 s⁻¹.
